Results published in patent publication US20020034725A1, “SENSITIZATION OF CELLS TO RADIATION AND AND CHEMOTHERAPY” (priority 1996, published 2002).

Columns and labels:
[1] = system: REF, 3.7, 4R, 5R and REF-GG cells; test: Apoptosis determination after 10 Gray irradiation (propidium iodide); assay type: cell-based, rat
Procedure: 3×10^3 cells/well in 24-well plates were allowed to attach for 12 hours and were then treated with medium containing FTI-277 in DMSO or an equivalent volume of DMSO without inhibitor. Twenty four hours after irradiation with 10 Gray using the irradiator described above, both adherent and non-adherent cells were harvested. Cells were stained with propidium iodide (Muschel et al., 1995, Cancer Res. 55:995-998). A minimum of three independent fields of 100 cells were counted for each sample. Scoring of samples was performed in a double blind manner.

K-ras = test: Western blot of K-ras prenylation in SW480 and Panc-1 cells; assay type: cell-based, human; details: SW480 cells, 48 hours
Procedure: FIG. 17A is an image of a Western blot depicting inhibition by FTI-277 of K-ras prenylation in human SW480 colon carcinoma cells. SW480 cells were treated with the indicated concentrations of FTI-277 (μM) for 48 hours. Samples were harvested and cell lysates were analyzed by Western blotting using either a H-ras monoclonal antibody (top) or a K-ras monoclonal antibody (bottom). Arrows indicate unfarnesylated ras bands.
FIG. 18A is an image of a Western blot depicting the specific inhibition of K-ras prenylation by combined FTI-277 and GGTI-298 treatment. Log phase cultures of human pancreatic carcinoma cells (Panc-1) and colon carcinoma cells (SW480) were treated with 5 μM FTI and 8 μM GGTI 298 for 48 hours. Cell samples were then harvested and cell lysates were prepared for Western blot analysis using monoclonal antibodies to K-ras and nuclear lamin B. The electrophoretic mobility of the K-ras mutant in SW480 is slower than that of the mutant K-ras in Panc-1 cells.

H-ras = H-ras prenylation in human colon carcinomas grown in nude mice; assay type: in vivo, mouse; details: SW480 and LoVo tumors in nude mice, two intraperitoneal injections of 50 mg/kg
Procedure: Expression of H-ras was detected by Western blot analysis using anti-H-ras monoclonal antibody of lysates of the human colon adenocarcinomas, SW480 and LoVo, grown in nude mice. Lysates were obtained from tumors excised from a vehicle (DMSO) treated mouse (Lane 1) and mice treated twice with intraperitoneal injections of 50 mg/kg of FTI-277 18 hours after treatment was initiated (Lanes 2 and 3). Lane 1 and 2: SW480, Lane 3: LoVo. The arrow denotes the migration of unfarnesylated H-ras.
To examine the effectiveness of prenylation inhibitors in vivo in an animals, both rodent and human tumor responses to these inhibitors were examined in tumor grafts growing on nude mice. The protocols described in Hoffinan (1992, Curr, Perspect. on Molec. & Cell. Oncol. 1:311-326) were followed to establish and grow tumors in nude mice.
To perform the assay, tumors were implanted and allowed to grow to approximately 125 mm^3. Mice having these tumors were then administered 50 mg/kg FTI-277 by intraperitoneal injection. Controls included mice which were injected with an equal volume of drug-free carrier solution. Two injections were given to each mouse, one at 18 hours and a second at 5 hours prior to sacrificing each mouse. The tumor ras prenylation status of the mice was subsequently assessed as described herein.

3.7 and 5R cells = test: Cell growth after FTI-277 treatment; assay type: cell-based, rat
Procedure: FIG. 15A is a graph depicting growth of primary REF cells (circles) and 3.7 cells (squares) after FTI-277 treatment. Two×10^5 cells were plated in medium containing 2.5 μM (3.7 cells) or 5 μM (REF cells) of FTI-277. […] Cells were harvested from replicate dishes at one day intervals and counted using a hemocytometer to determine the total cell number in each culture. Open symbols: DMSO (drug carrier) treated cells; closed symbols: FTI-277 treated cells.
FIG. 15B is a graph depicting growth of MR4 cells (circles) and 5R cells (squares) following treatment with FTI-277 treatment. Three×10^5 cells were plated in medium containing 5 μM FTI-277. Cells were harvested from replicate dishes at one day intervals and counted using a hemocytometer to determine the total cell number in each culture. Open symbols: DMSO (drug carrier) treated cells; closed symbols: 5 μM FTI-277 treated cells.

[2] = system: 5R, 3.7, MR4 and REF cells; test: Radiation survival determination (clonogenic survival); assay type: cell-based, rat; details: for plating efficiency: unaffected by FTI-277
Procedure: FIG. 14A comprises a series of graphs depicting clonogenic survival of 5R, 3.7, MR4, and REF cells following treatment with FTI-277 and irradiation of the cells. Immediately prior to irradiation, FTI-277 was added at concentrations of 2.5 μM (3.7 cells) or 5 μM (5R, MR4 and REF cells). The inhibitor was diluted out of the culture medium 24 hours later resulting in a final concentration of inhibitor of 1 μM (3.7 cells) or 2 μM (5R, MR4 and REF). The plating efficiencies of MR4 and […] were unaffected by treatment with FTI-277, being 100% and 32-38%, respectively. FTI-277 reduced the plating efficiency of 3.7 and REF cells by 50% of untreated control values which were 75% and 5%, respectively. […] The data points shown represent the mean of the results obtained from at least three separate dishes of cells. The open symbols indicate the results obtained in untreated cells and the closed symbols are those results obtained in cells treated with FTI-277. In the panel labeled 3.7, the open triangles are the results obtained in untreated MR4 cells.
Cells obtained from log growth cultures were plated in 60-mm dishes and allowed to attach for 4 hours before addition of FTI-277 to the medium. The plating medium was then removed and fresh medium containing FTI-277 in DMSO or DMSO alone (for control dishes) was added immediately before irradiation. Cells were irradiated with a Mark I cesium irradiator (J. S. Shepherd, San Fernando, Calif.) at a dose rate of 1.7 Gray per minute. Colonies of cells were stained and counted 10-14 days after irradiation (McKenna et al., 1990, supra). The surviving fraction of cells at a given dose is defined as: [formula]
Each point on the survival curves represents the mean surviving fraction from at least three dishes of cells.

**Q.** What does the source list for `COC(=O)[C@H](CCSC)NC(=O)c1ccc(NC[C@@H](N)CS)cc1-c1ccccc1` [FTI-277]?
**A.** inhibitor concentration of maximum effect on apoptosis ([1]; 3.7 cells, 10 Gray): 5 µM; apoptosis after irradiation ([1]; 3.7 cells, 10 Gray, 2.5 μM): significant increase; extent of apoptosis induced by irradiation ([1]; 3.7 cells, 10 Gray, 24 hours): greatly enhanced; irradiation-induced apoptosis ([1]; 4R and 5R cells, 10 Gray): augment irradiation-induced apoptosis; toxicity of the inhibitor ([1]; 48 hours, highest doses, 3.7 cells only): some toxicity; extent of apoptosis after irradiation ([1]; REF-GG cells): no significant effect; baseline level of apoptosis ([1]; REF-GG cells, unirradiated): slightly increased; apoptosis after irradiation ([1]; untransformed REF cells, 10 Gray): did not result in an increase in apoptosis; concentration at which altered migration of K-ras became evident (K-ras): 30 µM; H-ras migration in tumors (H-ras): altered H-ras migration; cell growth (3.7 and 5R cells; 3.7 cells, conditions of radiation survival experiments): some inhibition of cell growth; increase in cell number (3.7 and 5R cells; 3.7 cells, day 4 after drug treatment): fifty-fold increase in cell number; cell growth (3.7 and 5R cells; 5R cells, 5 μM): more resistant to growth inhibition; radioresistance (survival curves) ([2]; 3.7 (2.5 μM) and 5R (5 μM) cells, 24 hours after irradiation): reduced to a level of survival which was similar to that seen in MR4 cells; reduction of plating efficiency, of untreated control values ([2]; 3.7 and REF cells): 50%; plating efficiency ([2]; 5R cells): 32-38%; plating efficiency ([2]; MR4 cells): 100%; radiation survival ([2]; MR4 or REF cells, 5 μM): no effect on radiation survival
